Assays:
SauLplA2 = target: T1, SauLplA2 (Staphylococcus aureus, UniProt A0A0H3JX98); assay: lipoylation of GcvH-L, anti-lipoyl immunoblot; assay type: biochemical; conditions: co-substrate SauGcvH-L; 1 uM LplA, 2 uM target protein, 30 min, 30 C
T1 construct: gene SAV0327
T1 sequence (A0A0H3JX98 1-340): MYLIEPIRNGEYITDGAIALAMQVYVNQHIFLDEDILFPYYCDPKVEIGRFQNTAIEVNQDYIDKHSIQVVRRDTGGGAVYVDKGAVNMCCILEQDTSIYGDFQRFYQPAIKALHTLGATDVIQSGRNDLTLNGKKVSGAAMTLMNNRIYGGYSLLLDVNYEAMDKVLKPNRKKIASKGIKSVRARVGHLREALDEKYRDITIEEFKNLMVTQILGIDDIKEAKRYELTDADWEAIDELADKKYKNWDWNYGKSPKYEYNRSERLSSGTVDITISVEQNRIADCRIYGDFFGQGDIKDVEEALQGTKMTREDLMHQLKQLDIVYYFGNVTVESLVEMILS

LplA2 (S. pyogenes) = target: T2, LplA2 (S. pyogenes) (Streptococcus pyogenes, UniProt P0DN72); assay: lipoylation of GcvH-L, anti-lipoyl immunoblot; assay type: biochemical; conditions: co-substrate SpyGcvH-L; 1 uM LplA, 2 uM target protein, 30 min, 30 C
T2 construct: gene lplA

EcoLplA = target: T3, EcoLplA (Escherichia coli, UniProt P32099); assay: lipoylation of GcvH / GcvH-L, anti-lipoyl immunoblot; assay type: biochemical; conditions: co-substrate EcoGcvH, SauGcvH or SauGcvH-L; 1 uM LplA, 2 uM target protein, 30 min, 30 C
T3 construct: gene lplA
T3 sequence (P32099 2-338): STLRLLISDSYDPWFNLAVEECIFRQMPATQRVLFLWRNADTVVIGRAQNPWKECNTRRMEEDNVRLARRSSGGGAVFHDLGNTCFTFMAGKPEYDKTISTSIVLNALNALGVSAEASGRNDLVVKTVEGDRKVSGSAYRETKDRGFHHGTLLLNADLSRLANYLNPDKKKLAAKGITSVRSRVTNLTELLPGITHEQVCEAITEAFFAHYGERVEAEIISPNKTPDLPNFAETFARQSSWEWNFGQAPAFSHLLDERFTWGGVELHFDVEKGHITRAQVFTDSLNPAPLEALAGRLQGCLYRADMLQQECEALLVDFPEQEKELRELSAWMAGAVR

SauLplA1 = target: T4, SauLplA1 (Staphylococcus aureus, UniProt A0A0H3JR16); conditions: co-substrate SauGcvH or SauGcvH-L; 1 uM LplA, 2 uM target protein, 30 min, 30 C
T4 construct: gene SAV1028

SpySirTM = target: T5, SpySirTM (Streptococcus pyogenes, UniProt P0DN71); assay: X-ray crystallography (crystal soak); assay type: binding; conditions: 1 mM ligand soak, 10 min; 2.03 A; active site; also ADP-ribosyl donor for lipoylated GcvH-L
T5 construct: gene SpyM50869; crystal model residues 3-292 (7-10 not visible)
T5 sequence (P0DN71 whole entry, the tested form may be a part): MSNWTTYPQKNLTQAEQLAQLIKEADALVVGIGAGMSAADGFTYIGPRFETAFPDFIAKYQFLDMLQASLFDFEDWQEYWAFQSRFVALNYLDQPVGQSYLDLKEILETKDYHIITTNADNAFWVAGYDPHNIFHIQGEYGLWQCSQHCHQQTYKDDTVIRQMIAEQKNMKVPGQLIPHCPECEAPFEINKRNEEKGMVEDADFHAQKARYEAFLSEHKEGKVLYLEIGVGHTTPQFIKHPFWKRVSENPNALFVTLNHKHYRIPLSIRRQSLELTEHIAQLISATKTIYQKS

T4 sequence (A0A0H3JR16 whole entry): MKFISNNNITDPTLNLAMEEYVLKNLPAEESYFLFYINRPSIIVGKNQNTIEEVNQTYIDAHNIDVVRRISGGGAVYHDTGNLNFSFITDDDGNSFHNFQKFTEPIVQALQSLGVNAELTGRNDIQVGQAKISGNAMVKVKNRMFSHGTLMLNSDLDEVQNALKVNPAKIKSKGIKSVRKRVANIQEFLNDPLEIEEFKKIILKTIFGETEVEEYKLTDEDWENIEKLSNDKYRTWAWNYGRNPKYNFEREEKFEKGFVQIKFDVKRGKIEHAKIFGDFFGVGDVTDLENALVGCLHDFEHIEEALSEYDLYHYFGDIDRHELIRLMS
T2 sequence (P0DN72 whole entry): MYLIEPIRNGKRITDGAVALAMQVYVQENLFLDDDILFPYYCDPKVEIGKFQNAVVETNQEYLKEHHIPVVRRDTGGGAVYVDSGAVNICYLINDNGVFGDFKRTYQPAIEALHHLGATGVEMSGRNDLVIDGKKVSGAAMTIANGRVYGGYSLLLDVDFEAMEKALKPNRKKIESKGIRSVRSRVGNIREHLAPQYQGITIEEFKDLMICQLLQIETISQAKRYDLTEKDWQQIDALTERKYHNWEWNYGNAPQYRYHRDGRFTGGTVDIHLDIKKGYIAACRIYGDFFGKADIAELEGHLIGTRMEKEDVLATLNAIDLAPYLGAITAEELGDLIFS

## O=C(O)CCCC[C@@H]1CCSS1 (racemic) [lipoic acid]
SauLplA2
  lipoylation of GcvH-L, anti-lipoyl immunoblot: both operonal LplA2s efficiently transferred lipoic acid (LA) onto GcvH-L
LplA2 (S. pyogenes)
  lipoylation of GcvH-L, anti-lipoyl immunoblot: both operonal LplA2s efficiently transferred lipoic acid (LA) onto GcvH-L
EcoLplA
  lipoylation of GcvH / GcvH-L, anti-lipoyl immunoblot: EcoLplA readily modifies all three GcvHs
SauLplA1
  lipoylation of GcvH / GcvH-L, anti-lipoyl immunoblot: SauLplA1 appears to be indiscriminative toward both S. aureus GcvHs

## NC(=O)c1ccc[n+]([C@@H]2O[C@H](COP(=O)(O)OP(=O)(O)OC[C@H]3O[C@@H](n4cnc5c(N)ncnc54)[C@H](O)[C@@H]3O)[C@@H](O)[C@H]2O)c1 [NAD^+]
SpySirTM
  X-ray crystallography (crystal soak): The ligand-SpySirTM complexes reveal that the general mode of NAD^+ binding to SpySirTM is similar

Source: publication PMC4518038, “Identification of a Class of Protein ADP-Ribosylating Sirtuins in Microbial Pathogens” (Molecular Cell, 2015)
